BindingDB's records for doi:10.1021/bi100299r (Riken Systems and Structural Biology Center, 2010)

Target: Lysine-specific histone demethylase 1A (Homo sapiens, UniProt O60341)
Test: LSD1 Inhibition Assay
From the text: The kinetic inhibition parameters of LSD1 demethylase inhibition were obtained using the peroxidase-coupled reaction method.

SMILES | IC50 [µM]
COc1cccc(COc2c(F)cc(F)cc2C2CC2N)c1 (centres undefined) [S2206] | > 30
CC(C)COc1ccc(Cl)cc1C1CC1N (centres undefined) | 14.9
NC1CC1c1ccc(OCc2ccccc2)cc1OCc1ccccc1 (centres undefined) [S1601] | > 30
NC1CC1c1cc(Cl)ccc1OCc1ccccc1 (centres undefined) [S1401] | > 30
NCc1cccc(COc2c(F)cc(F)cc2C2CC2N)c1 (centres undefined) [S2107] | 4.1
CC(C)COc1c(Cl)cc(Cl)cc1C1CC1N (centres undefined) [S1502] | > 50
NC1CC1c1cc(F)ccc1-c1ccccc1 (centres undefined) [S1310] | > 50
NC1CC1c1ccc(OCC2CCCCC2)cc1OCC1CCCCC1 (centres undefined) [S1603] | > 30
CC(C)COc1ccc(C2CC2N)c(OCC(C)C)c1 (centres undefined) [S1602] | > 30
